Experimental data taken from patent US20230059022A1, “PRUSSIAN BLUE ZnO CARBON NANOTUBE COMPOSITE FOR MEASURING HYDROGEN PEROXIDE IN CANCER CELLS” (Middle Tennessee State University, priority 2020, published 2023).
Values joined by “and” are separate entries in the source; they are usually repeats but may differ in a detail not shown here. Identical values can stand only once.

Key:
Type in all cases: cell-based
4T1 cancer cells [1] = assay: ELISA (Amplex Red hydrogen peroxide release assay) of 4T1 cells
BT20 cancer cells [2] = assay: SAM CA (chronoamperometry with standard addition) of hydrogen peroxide release from BT20 cells
Protocol: (§1) BT20 and 4T1 cells were purchased from American Type Culture Collection (ATCC). Both cell lines were maintained in RPMI-1640 medium (Sigma-Aldrich) with 10% Fetal Bovine Serum (FBS) (Gibco) at 37° C. with 5% CO2. The medium was renewed every two days. Well-grown BT20 cells in logarithmic phase were digested by 0.25% (w/v) Trypsin (Fisher Scientific) from the original culture flask and mixed well before being seeded on a 96-well cell culture plate (Denville Scientific) with a density of 5×10^4 cells/mL and incubated with the same full medium at 37° C. with 5% CO2 for 24 h. Cells were then treated with 100 μL of 50 μM doxonibicin (Dox) (Sigma-Aldrich). […]
(§2) Electrochemical activity of the PB/ZnO/COOH-MWNTs was studied using cyclic voltammetry (CV) and chronoamperometry (CA) using AfterMath™ software ver 1.2.5658 and a WaveNano™ potentiostat (Pine Research Instrument Co., Raleigh, N.C., USA). […] The concentrations of hydrogen peroxide in BT20 cancer cells were measured chronoamperometrically, employing the standard addition method (CA SAM). Samples were measured by standard additions of hydrogen peroxide in increasing order to create the calibration curve needed to determine the unknown hydrogen peroxide concentration in the cancer cells. BT20 and 4T1 cancer cells were cultured and the concentration of hydrogen peroxide in the cancer cells analyzed using this sensor. […]

4T1 cancer cells [3] = assay: SAM CA (chronoamperometry with standard addition) of hydrogen peroxide release from 4T1 cells
Protocol: as §1, §2

BT20 cancer cells [4] = assay: ELISA (Amplex Red hydrogen peroxide release assay) of BT20 cells; conditions: single replicate wells
Protocol: BT20 and 4T1 cells were purchased from American Type Culture Collection (ATCC). Both cell lines were maintained in RPMI-1640 medium (Sigma-Aldrich) with 10% Fetal Bovine Serum (FBS) (Gibco) at 37° C. with 5% CO2. The medium was renewed every two days. Well-grown BT20 cells in logarithmic phase were digested by 0.25% (w/v) Trypsin (Fisher Scientific) from the original culture flask and mixed well before being seeded on a 96-well cell culture plate (Denville Scientific) with a density of 5×10^4 cells/mL and incubated with the same full medium at 37° C. with 5% CO2 for 24 h. Cells were then treated with 100 μL of 50 μM doxonibicin (Dox) (Sigma-Aldrich). Cells treated with 100 μL of vehicle (RPMI-1640 medium) only served as a control. The Dox group and control group each had eight replicate wells. After 24 h of incubation, 50 μL of the medium was collected from each well and proceeded for hydrogen peroxide determination.
The hydrogen peroxide release assay was carried on using Amplex™ Red Hydrogen Peroxide/Peroxidase Assay Kit (Invitrogen) according to the instruction. […] After incubation at room temperature in the dark for 30 min, the absorbance of each well at 560 nm of was measured with a CLARIOstar™ microplate reader (BMG Labtech). The concentration of hydrogen peroxide in the sample was calculated according to the standard curve. […]

COc1cccc2c1C(=O)c1c(O)c3c(c(O)c1C2=O)C[C@@](O)(C(=O)CO)C[C@@H]3O[C@H]1C[C@H](N)[C@H](O)[C@H](C)O1 [Dox, doxonibicin]
H2O2 from Dox treated 4T1 cancer cells, ELISA results (4T1 cancer cells [1]; Dox treated, single replicate wells): 1.9605 µM and 2.0921 µM and 2.4868 µM and 2.75 µM and 2.8816 µM and 2.6184 µM and 3.0132 µM and 1.8289 µM
difference in hydrogen peroxide between Dox-treated and untreated 4T1 cells by ELISA (4T1 cancer cells [1]; p=0.8932): no statistical difference
hydrogen peroxide concentration in Dox-treated BT20 cancer cells (mean) (BT20 cancer cells [2]; 48 h Dox-treated BT20 cells, CA SAM, n=6): 16.0 ± 1.4 µM
H2O2 from Dox-treated BT20 cancer cells, SAM CA (BT20 cancer cells [2]; BT20 cells, Dox treated, single replicates, SAM CA): 15.1 μM and 15.88 μM (2×) and 17.47 μM (2×) and 14.42 μM
H2O2 from Dox treated 4T1 cancer cells, SAM CA (4T1 cancer cells [3]; 4T1 cells, Dox treated, single replicates, SAM CA): 14 µM and 15.6 µM and 16 µM
concentration of hydrogen peroxide released in Dox-treated 4T1 cancer cells (mean) (4T1 cancer cells [3]; Dox-treated 4T1 cells, CA SAM, n=3, p=0.0182 vs untreated): 15.2 µM
H2O2 from Dox-treated BT20 cancer cells, ELISA results (BT20 cancer cells [4]): 5.0152 μM and 5.3182 μM (2×) and 5.6212 μM (2×) and 6.0758 μM and 6.9848 μM and 4.4091 μM
